According to patent US20050148514A1, “Method and composition for treatment of angiogenesis” (priority 2003, published 2005):
Where no end group is shown, it is not given here. The star is where a group is joined. Acm = CC(=O)NC*

What was measured:
ERK [1] = test: Intrinsic effect on ERK phosphorylation (western blot); type: cell-based; details: MAPK inhibitor added with PCK3145 derivative
Method: In order to investigate the potential intracellular pathways triggered by the PCK3145 derivative, a gene-reporter assay using the SEAP (Secreted Alkaline Phosphatase) Mercury Profiling Kit (CLONTECH) was performed in glioma cells (U-87). This assay enables the monitoring of transcription factors that are triggered by a particular experimental condition by assaying the alkaline phosphatase activity in the extracellular media. […] The induction of the MAPK pathway by the PCK3145 derivative is further confirmed by the rapid and transient induction of ERK phosphorylation between 5-10 minutes (FIG. 8B) and is shown to be dose-dependent (FIG. 8C). Finally, the effects of the PCK3145 derivative were also compared to those of a scrambled peptide.

ERK [2] = details: cited from earlier work
tumor growth = details: animals, previous results; cited from earlier work
ERK [3] = test: Growth factor-induced ERK phosphorylation in HUVEC (western blot); type: cell-based, Human; details: serum-starved HUVEC, 300 μg/ml for 24 h, then VEGF
Method: (§1) Cell culture. Human umbilical vein endothelial cells (HUVEC) and pulmonary aortic smooth muscle cells (PASMC) were obtained from Clonetics and maintained in endothelial cell basal medium-2, (EBM-2; Clonetics) and smooth muscle medium-2 (SmGM-2; Clonetics), respectively. Cells were cultured at 37° C. under a humidified atmosphere containing 5% CO2. For experimental purposes, cells were plated in 8 100-mm plastic dishes at 5,000 cells/cm^2 and were grown to confluence before overnight serum starvation. Cells were treated with vehicle or with a PCK3145 derivative diluted in 0.1 N NaOH, and stimulated with 50 ng/ml VEGF, PDGF or with 1 μM S1P.
Immunoprecipitation and immunoblotting procedures. After treatment, cells were washed once with phosphate-buffered saline (PBS) containing 1 mM sodium orthovanadate and were incubated in the same medium for 1 h at 4° C. The cells were solubilized on ice in lysis buffer (150 mM NaCl, 10 mM Tris-HCl, pH 7.4, 1 mM EDTA, 1 mM EGTA, 0.5% Nonidet P-40, 1% Triton X-100) containing 1 mM sodium orthovanadate. The cells were then scraped from the culture dishes and the resulting lysates were clarified by centrifugation at 10,000 g for 10 min. Protein concentrations were determined using the micro bicinchoninic acid method. For immunoprecipitation studies, lysates were clarified by a 1 h incubation at 4° C. with a mixture of Protein A/Protein G Sepharose beads. After removal of the Sepharose beads by low-speed centrifugation, identical amounts of protein (200 μg) from each sample were transferred to fresh tubes and incubated in lysis buffer overnight at 4° C. in the presence of 2 μg/ml of specific antibodies. Immunocomplexes were collected by incubating the mixture with 25 μl (50% suspension) of Protein A—(rabbit primary antibody) or Protein G—(mouse primary antibody) Sepharose beads, for 2 h. Nonspecifically-bound material was removed by washing the beads three times in 1 ml of lysis buffer containing 1 mM sodium orthovanadate, and bound material was solubilized in 25 μl of two-fold concentrated Laemmli sample buffer, boiled 5 min, and resolved by SDS-PAGE. The proteins were transferred onto polyvinylidene difluoride (PVDF) membranes, blocked 1 h at room temperature with Tris-buffered saline/Tween 20 (147 mM NaCl, 20 mM Tris/HCl, pH 7.5, and 0.1% Tween 20) containing 2% bovine serum albumin and incubated overnight at 4° C. with primary antibody.
VEGF is a strong activator of ERKs (Extracellular-signal-Regulated protein Kinases) 1 and 2 via VEGF receptor 2. In order to test the ability of the PCK3145 derivative in potentially antagonizing VEGF-mediated ERK phosphorylation, serum-starved quiescent endothelial cells (HUVEC) were incubated with vehicle (phosphate-buffered saline (PBS) pH 7.4) or PCK3145 derivative (300 μg/ml) for 24 h and then stimulated with VEGF, bFGF (basic Fibroblast Growth Factor) or S1P (sphingosine-1-phosphate). Cells were washed with PBS containing NaF/Na3VO4 and incubated in the same medium buffer for 1 h at 4° C. The cells were scraped from the culture dishes and the resulting lysates clarified by centrifugation. Western blotting and immunodetection using anti-phosphoERK and anti-ERK antibodies was then performed.

VEGFR-2 = target: T1, VEGFR-2 (Homo sapiens, UniProt P35968); test: VEGF-induced VEGFR-2 phosphorylation in HUVEC (immunoprecipitation, western blot); type: cell-based; details: serum-starved HUVEC, 300 μg/ml; 24 h
T1 construct: host or cells: HUVEC
T1 sequence (P35968 20-1356): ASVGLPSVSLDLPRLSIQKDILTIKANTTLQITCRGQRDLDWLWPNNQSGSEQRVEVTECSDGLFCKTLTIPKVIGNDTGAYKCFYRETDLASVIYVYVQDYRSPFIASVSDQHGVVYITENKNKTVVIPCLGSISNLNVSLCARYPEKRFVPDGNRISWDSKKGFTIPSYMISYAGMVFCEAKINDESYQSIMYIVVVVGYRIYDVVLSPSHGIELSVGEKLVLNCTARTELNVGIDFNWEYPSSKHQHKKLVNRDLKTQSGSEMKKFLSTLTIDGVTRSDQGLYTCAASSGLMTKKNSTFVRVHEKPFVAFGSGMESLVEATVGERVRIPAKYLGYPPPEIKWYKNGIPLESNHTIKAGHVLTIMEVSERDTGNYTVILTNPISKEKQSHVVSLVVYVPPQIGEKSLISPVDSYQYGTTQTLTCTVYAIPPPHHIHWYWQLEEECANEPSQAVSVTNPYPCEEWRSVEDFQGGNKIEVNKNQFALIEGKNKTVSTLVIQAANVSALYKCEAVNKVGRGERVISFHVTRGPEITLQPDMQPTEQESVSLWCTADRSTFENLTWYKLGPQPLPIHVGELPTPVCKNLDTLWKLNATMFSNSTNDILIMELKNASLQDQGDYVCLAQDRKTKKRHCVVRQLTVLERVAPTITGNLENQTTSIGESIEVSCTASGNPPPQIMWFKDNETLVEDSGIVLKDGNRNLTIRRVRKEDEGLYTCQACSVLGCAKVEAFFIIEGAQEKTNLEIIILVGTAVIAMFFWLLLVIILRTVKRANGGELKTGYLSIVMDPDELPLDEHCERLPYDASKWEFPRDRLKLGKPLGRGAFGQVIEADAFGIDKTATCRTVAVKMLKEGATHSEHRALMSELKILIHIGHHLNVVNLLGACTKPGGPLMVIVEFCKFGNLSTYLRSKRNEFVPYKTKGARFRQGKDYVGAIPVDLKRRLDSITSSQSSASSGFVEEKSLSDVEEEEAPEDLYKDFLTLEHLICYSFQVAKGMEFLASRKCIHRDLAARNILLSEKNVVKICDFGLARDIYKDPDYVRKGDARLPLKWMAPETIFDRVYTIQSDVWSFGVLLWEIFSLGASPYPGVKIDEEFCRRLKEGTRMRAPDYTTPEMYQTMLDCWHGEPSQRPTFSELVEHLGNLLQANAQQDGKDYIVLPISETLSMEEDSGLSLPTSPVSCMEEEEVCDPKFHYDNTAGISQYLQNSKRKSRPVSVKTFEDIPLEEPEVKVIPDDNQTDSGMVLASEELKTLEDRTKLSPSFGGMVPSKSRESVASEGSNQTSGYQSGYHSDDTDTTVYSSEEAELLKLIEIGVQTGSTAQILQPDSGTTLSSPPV
Method: as §1
Immunoprecipitation and immunoblotting procedures. After treatment, cells were washed once with phosphate-buffered saline (PBS) containing 1 mM sodium orthovanadate and were incubated in the same medium for 1 h at 4° C. The cells were solubilized on ice in lysis buffer (150 mM NaCl, 10 mM Tris-HCl, pH 7.4, 1 mM EDTA, 1 mM EGTA, 0.5% Nonidet P-40, 1% Triton X-100) containing 1 mM sodium orthovanadate. The cells were then scraped from the culture dishes and the resulting lysates were clarified by centrifugation at 10,000 g for 10 min. Protein concentrations were determined using the micro bicinchoninic acid method. For immunoprecipitation studies, lysates were clarified by a 1 h incubation at 4° C. with a mixture of Protein A/Protein G Sepharose beads. After removal of the Sepharose beads by low-speed centrifugation, identical amounts of protein (200 μg) from each sample were transferred to fresh tubes and incubated in lysis buffer overnight at 4° C. in the presence of 2 μg/ml of specific antibodies. […]
The multifunctionality of VEGF at the cellular level results from its ability to initiate a diverse, complex and integrated network of signaling pathways via its major receptor, VEGFR-2. […] After each treatment, equal amounts of protein were immunoprecipitated with anti-VEGFR-2 polyclonal antibodies and analysed by Western blotting.

skeletal metastasis = details: cited from earlier work
tumor cells = details: cited from earlier work

Molecule: COc1cccc(-c2cc(=O)c3ccccc3o2)c1N [PD98059, reference compound]
- effect on induction of ERK phosphorylation by the PCK3145 derivative (ERK [1]): antagonized
- ERK phosphorylation (pharmacological inhibitor, documented) (ERK [2]): documented pharmacological inhibitor of ERK phosphorylation

Molecule: EWQTDNCETCTCYET (cysteine pairing not given here) [PCK3145]
- tumor growth (tumor growth): tumor growth inhibition

Molecule: Thr-Cys(Acm)-Glu-Asn-Cys(Acm)-Thr-Glu-Thr-Gln-Trp-Cys(Acm)-Glu-Thr-Asp-Tyr (TC(Acm)ENC(Acm)TETQWC(Acm)ETDY) [scrambled peptide, negative control, reference compound]
- ERK phosphorylation induced by VEGF (ERK [3]): lack of effect
- phosphorylation of VEGFR-2 induced by VEGF (VEGFR-2): lack of effect

B1: Ser Cys Tyr Phe Ile Pro Asn Glu Gly Val Pro Gly Asp Ser Thr Arg Lys Cys Met Asp Leu Lys Gly Asn Lys His Pro Ile Asn Ser Glu Trp Gln Thr Asp Asn Cys Glu Thr Cys Thr Cys Tyr Glu Thr Glu Ile Ser Cys Cys … (protein, listed as Homo sapiens)
chain: SCYFIPNEGVPGDSTRKCMDLKGNKHPINSEWQTDNCETCTCYETEISCCTLVSTPVGYDKDNCQRIFKKEDCKYIVVEKKDPKKTCSVSEWII
notes: Prostate secretory protein, wild type
- calcium levels (skeletal metastasis; animal modeling prostate cancer): reduction in calcium levels
- development of skeletal metastasis (skeletal metastasis; in vivo): reduces the development of skeletal metastasis
- growth of tumor cells (tumor cells): inhibits growth
